As a reminder, the IC50 is the concentration at which inhibition is half-maximal.

A short description of data set [1]: Mutagenicity in Salmonella typhimurium by Ames test. Particulars: salmonella enterica subsp. enterica serovar typhimurium. The data set is classed as toxicity.
Data set [2] concerns Cell membrane. Nature of the data set: Induction of mitochondrial membrane potential loss in human HepG2 cells assessed as decrease in fluorescence at 10 uM measured after 48 hrs by Rhodamine 123 staining based flow cytometry (reference value: 66.8%). The data set is classed as cell membranes. More on the design: scale not given: the % may be the effect or the level left. (In general: A flow cytometer gives signals particle by particle.)

Data set [3] in a line: Downregulation of NOTCH3 expression level in human HepG2 cells assessed as fold change by KEGG enrichment analysis. The data set is classed as functional.
Data set [4] in a line: Upregulation of DUSP6 expression level in human HepG2 cells assessed as fold change by KEGG enrichment analysis. The class given is functional.
Data set [5] in a line: Upregulation of SYVN1 expression level in human HepG2 cells assessed as fold change by KEGG enrichment analysis. The data set is classed as functional.
Data set [6] deals with HepG2. In words: Induction of cell cycle arrest in human HepG2 cells assessed as accumulation of cells at 2N phase at 10 uM incubated for 48 hrs by PI staining based flow cytometry analysis (reference value: 26.0%). The data set is classed as functional.
Data set [7] relates to HepG2. Nature of the data set: Induction of apoptosis in human HepG2 cells assessed as early apoptotic cells at 10 uM incubated for 48 hrs by annexin V-FITC/PI staining based flow cytometry analysis (reference value: 0.50%). The class given is functional.
Data set [8] in a line: Toxicity in Balb/c mouse assessed as effect on tumor at 6 mg/kg, iv measured after 14 days by H and E staining based analysis. The data set is classed as organism-based. Particulars: in vivo, 336 h, time 14 day.
Data set [9] can be described thus: Upregulation of DET1 expression level in human HepG2 cells assessed as fold change by KEGG enrichment analysis. The class given is functional.
The test system of data set [10] is HepG2. In words: Induction of apoptosis in human HepG2 cells assessed as early apoptotic cells at 5 uM incubated for 48 hrs by annexin V-FITC/PI staining based flow cytometry analysis (reference value: 0.50%). The data set is classed as functional.
Data set [11] relates to HepG2. Nature of the data set: Induction of cell cycle arrest in human HepG2 cells assessed as accumulation of cells at S phase at 10 uM incubated for 24 hrs by PI staining based flow cytometry analysis (reference value: 39.6%). The class given is functional.
Data set [12] deals with HepG2. In words: Induction of cell cycle arrest in human HepG2 cells assessed as accumulation of cells at G2/M phase at 20 uM incubated for 48 hrs by PI staining based flow cytometry analysis (reference value: 6.38%). The class given is functional.
Data set [13] in a line: Upregulation of GADD45A expression level in human HepG2 cells assessed as fold change by KEGG enrichment analysis. The data set is classed as functional.
Data set [14] has as its system MDA-MB-231. Nature of the data set: Antiproliferative activity against human MDA-MB-231 cells incubated for 48 hrs by MTT assay. The data set is classed as functional, cell-based. Conditions: MDA-MB-231, 48 h. A general note: Tetrazolium dyes change colour on reduction, which living cells bring about.
Data set [15] concerns HepG2. Nature of the data set: Induction of apoptosis in human HepG2 cells assessed as increase in intracellular calcium level at 10 uM measured after 24 hrs by fluo-3AM dye based flow cytometry analysis. The data set is classed as functional, cell-based. In general terms: Calcium flux is commonly read through the fluorescence of an indicator in the cells.
Data set [16] deals with HepG2. Nature of the data set: Antiproliferative activity against human HepG2 cells incubated for 48 hrs by MTT assay. Particulars: HepG2, 48 h. The data set is classed as functional, cell-based.
Data set [17] can be described thus: Upregulation of ATF4 expression level in human HepG2 cells assessed as fold change by KEGG enrichment analysis. The class given is functional.
A short description of data set [18]: Toxicity in Balb/c mouse assessed as effect on heart at 6 mg/kg, iv measured after 14 days by H and E staining based analysis. Particulars: in vivo, 336 h, time 14 day. The data set is classed as organism-based.
Data set [19] deals with HepG2. In words: Induction of apoptosis in human HepG2 cells assessed as viable cells at 5 uM incubated for 48 hrs by annexin V-FITC/PI staining based flow cytometry analysis (reference value: 99.3%). The data set is classed as functional. Conditions: read-out: Activity.
Data set [20] relates to HepG2. Nature of the data set: Induction of cell cycle arrest in human HepG2 cells assessed as accumulation of cells at <2N phase at 10 uM incubated for 12 hrs by PI staining based flow cytometry analysis (reference value: 0.027%). The data set is classed as functional.
Data set [21] has as its system HepG2. Nature of the data set: Induction of morphological changes in human HepG2 cells assessed as decrease in cell adhesion at 40 uM measured after 12 to 24 hrs by fluorescence inverted microscopic analysis. The data set is classed as functional, cell-based. Particulars: time 12-24 hrs.
In data set [22] the test system is HepG2. In words: Induction of cell cycle arrest in human HepG2 cells assessed as accumulation of cells at <2N phase at 5 uM incubated for 48 hrs by PI staining based flow cytometry analysis (reference value: 0.027%). The data set is classed as functional.
In data set [23] the test system is HepG2. Nature of the data set: Induction of apoptosis in human HepG2 cells assessed as necrotic cells at 10 uM incubated for 48 hrs by annexin V-FITC/PI staining based flow cytometry analysis (reference value: 0%). The data set is classed as functional.

SMILES strings stand for the structures. The source made the active and inactive calls. The rule behind the calls is not given here.

Regarding `CC(C)C[C@H]1NC(=O)[C@H]([C@@H](C)OCc2ccccc2)NC(=O)[C@H]2CCCN2C(=O)CN2C(=O)c3ccccc3[C@@]2(O)CN(Cc2ccccc2)C(=O)[C@H](Cc2ccccc2)NC(=O)[C@H]2CCCN2C(=O)[C@H](Cc2c[nH]c3ccccc23)NC1=O`, the Activity result was “Non-Toxic” in data set [1]; 28.8% in data set [2]; 33.5% in [6]; 27.3% in data set [7]; “Non-Toxic” in data set [8]; 16.8% in [10]. Moreover, the Activity was 14.3% in data set [11]; 37.1% in data set [12]; “Non-Toxic” in data set [18]; 36.2% in data set [20]; 37.3% in [22]; 0% in data set [23]. The “fold change (FC)” value in data set [3] is on record as -1.52; in [4], 1.112; in data set [5], 1.048; in data set [9] it was 1.448; in [13], 1.519; in data set [17], 1.43. Also, the concentration for half-maximal inhibition (IC50) in data set [14] was determined as 12.8 µM; in [16], 11.6 µM. The outcome in data set [15] and in data set [21] was Active. The viability at 5 µM in [19] came to 80.8%.

(Values after ChEMBL document CHEMBL5550186, “Exploring the Potential of Cyclic Peptidyl Antitumor Agents Derived from Natural Macrocyclic Peptide Phakellistatin 13” (J Med Chem, 2024).)
